Source: article PMC5061470, “Promiscuous targeting of bromodomains by bromosporine identifies BET proteins as master regulators of primary transcription response in leukemia” (Science Advances, 2016)

What was measured:
BAZ2A = biological target: T1, BAZ2A (Homo sapiens, UniProt Q9UIF9); assay type: binding
T1 construct: Human BRDs were subcloned into bacteria-expressing vectors; made in house
T1 sequence (Q9UIF9 1793-1897 limits assumed): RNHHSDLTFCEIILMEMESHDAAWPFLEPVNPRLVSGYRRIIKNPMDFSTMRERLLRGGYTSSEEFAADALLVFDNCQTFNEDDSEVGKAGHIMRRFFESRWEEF

BRD4(1) = BRD4(1) (Homo sapiens, UniProt O60885); assay type: binding
BRD9 = biological target: T2, BRD9 (Homo sapiens, UniProt Q9H8M2); assay type: binding
T2 sequence (Q9H8M2 136-240 limits assumed): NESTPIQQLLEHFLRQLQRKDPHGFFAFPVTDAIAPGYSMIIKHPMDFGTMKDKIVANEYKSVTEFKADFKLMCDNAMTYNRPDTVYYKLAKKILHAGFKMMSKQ

BRPF3 = biological target: T3, BRPF3 (Homo sapiens, UniProt Q9ULD4); assay type: binding
T3 construct: Human BRDs were subcloned into bacteria-expressing vectors; made in house; host or cells: bacteria
T3 sequence (Q9ULD4 589-693 limits assumed): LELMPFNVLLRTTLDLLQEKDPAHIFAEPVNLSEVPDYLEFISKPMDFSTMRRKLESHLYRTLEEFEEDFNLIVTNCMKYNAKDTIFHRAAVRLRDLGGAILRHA

OCI-AML3 = test: cells; assay type: cell-based, human; settings: Homo sapiens, OCI-AML-3, 72 h, read-out: IC50, cell proliferation
K562 = assay type: cell-based, human
A1 (h) = A1 (h) (Homo sapiens, UniProt P30542); test: biochemical; settings: read-out: % Inhibition of Control Specific Binding
Sequence of A1 (h) (P30542 whole entry): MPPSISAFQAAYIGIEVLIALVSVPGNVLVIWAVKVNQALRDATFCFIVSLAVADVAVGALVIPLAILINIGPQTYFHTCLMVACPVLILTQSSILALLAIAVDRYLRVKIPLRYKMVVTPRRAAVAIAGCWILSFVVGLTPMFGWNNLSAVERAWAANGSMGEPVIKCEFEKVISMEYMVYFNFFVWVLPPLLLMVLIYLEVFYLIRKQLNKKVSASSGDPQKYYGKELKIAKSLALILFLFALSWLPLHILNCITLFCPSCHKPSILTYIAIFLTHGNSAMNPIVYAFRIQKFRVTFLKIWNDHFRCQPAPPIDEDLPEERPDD

alpha 2C (h) = alpha 2C (h) (Homo sapiens, UniProt P18825); test: biochemical; settings: read-out: % Inhibition of Control Specific Binding
beta 2 (h) = beta 2 (h) (Homo sapiens, UniProt P07550); test: biochemical; settings: read-out: % Inhibition of Control Specific Binding
AT2 (h) = AT2 (h) (Homo sapiens, UniProt P50052); test: biochemical; settings: read-out: % Inhibition of Control Specific Binding
BZD (central) = assay type: binding
D3 (h) = D3 (h) (Homo sapiens, UniProt P35462); test: biochemical; settings: read-out: % Inhibition of Control Specific Binding
ETB (h) = ETB (h) (Homo sapiens, UniProt P24530); test: biochemical; settings: read-out: % Inhibition of Control Specific Binding
Sequence of ETB (h) (P24530 27-442): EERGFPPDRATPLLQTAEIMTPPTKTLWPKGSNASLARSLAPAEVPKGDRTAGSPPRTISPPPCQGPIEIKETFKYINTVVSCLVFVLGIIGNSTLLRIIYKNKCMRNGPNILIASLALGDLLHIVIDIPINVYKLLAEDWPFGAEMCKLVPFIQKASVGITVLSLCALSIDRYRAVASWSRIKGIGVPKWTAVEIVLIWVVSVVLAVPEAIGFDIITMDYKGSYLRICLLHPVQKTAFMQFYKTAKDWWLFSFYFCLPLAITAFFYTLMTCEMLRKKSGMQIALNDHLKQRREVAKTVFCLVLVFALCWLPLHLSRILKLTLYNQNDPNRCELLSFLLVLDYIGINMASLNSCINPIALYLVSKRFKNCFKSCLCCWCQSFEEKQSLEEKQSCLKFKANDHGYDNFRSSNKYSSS

[1] = biological target: GABAA1 (h) (alpha 1,beta 2,gamma 2) (Homo sapiens, UniProt P14867+P47870); test: biochemical; assay type: binding; settings: read-out: % Inhibition of Control Specific Binding
GABAB(1b) (h) = GABAB(1b) (h) (Homo sapiens, UniProt Q9UBS5); test: biochemical; settings: read-out: % Inhibition of Control Specific Binding
kainate = assay type: binding
NMDA = test: CEREP binding, antagonist radioligand
[2] = biological target: glycine (strychnine-insensitive) (Rattus norvegicus, UniProt P35439); test: biochemical; settings: read-out: % Inhibition of Control Specific Binding
TNF-alpha (h) = test: CEREP binding, agonist radioligand; set-up: species or system human
CCR2 (h) = CCR2 (h) (Homo sapiens, UniProt P41597); test: CEREP binding, agonist radioligand; settings: read-out: % Inhibition of Control Specific Binding
motilin (h) = motilin (h) (Homo sapiens, UniProt O43193); test: biochemical; assay type: binding; settings: read-out: % Inhibition of Control Specific Binding
Sequence of motilin (h) (O43193 whole entry): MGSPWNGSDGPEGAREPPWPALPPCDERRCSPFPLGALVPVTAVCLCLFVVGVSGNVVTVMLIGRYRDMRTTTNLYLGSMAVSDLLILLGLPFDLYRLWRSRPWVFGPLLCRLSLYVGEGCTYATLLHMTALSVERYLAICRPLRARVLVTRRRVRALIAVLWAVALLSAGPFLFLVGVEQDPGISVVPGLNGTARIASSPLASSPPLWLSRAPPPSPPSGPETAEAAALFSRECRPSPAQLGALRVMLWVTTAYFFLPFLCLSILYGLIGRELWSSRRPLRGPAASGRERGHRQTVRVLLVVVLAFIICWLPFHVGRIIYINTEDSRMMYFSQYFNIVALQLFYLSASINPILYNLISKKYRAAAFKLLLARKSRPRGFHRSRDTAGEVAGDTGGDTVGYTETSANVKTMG

NK2 (h) = NK2 (h) (Homo sapiens, UniProt P21452); test: biochemical; settings: read-out: % Inhibition of Control Specific Binding
N muscle-type (h) = N muscle-type (h) (Homo sapiens, UniProt P02708+P07510+Q07001); test: biochemical; settings: read-out: % Inhibition of Control Specific Binding
PAF (h) = PAF (h) (Homo sapiens, UniProt P25105); test: biochemical; assay type: binding; settings: read-out: % Inhibition of Control Specific Binding
Sequence of PAF (h) (P25105 whole entry): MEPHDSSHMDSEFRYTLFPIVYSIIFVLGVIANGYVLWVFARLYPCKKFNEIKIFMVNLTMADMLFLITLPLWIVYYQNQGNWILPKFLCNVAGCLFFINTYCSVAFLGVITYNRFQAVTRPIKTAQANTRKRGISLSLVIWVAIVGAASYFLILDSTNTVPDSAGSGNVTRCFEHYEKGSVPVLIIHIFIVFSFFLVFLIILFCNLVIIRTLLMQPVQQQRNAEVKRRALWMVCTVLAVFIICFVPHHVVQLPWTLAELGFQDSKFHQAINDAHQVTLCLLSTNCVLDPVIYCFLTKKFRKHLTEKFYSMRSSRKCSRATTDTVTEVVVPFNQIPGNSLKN

EP2 (h) = EP2 (h) (Homo sapiens, UniProt P43116); test: biochemical; settings: read-out: % Inhibition of Control Specific Binding
Sequence of EP2 (h) (P43116 whole entry): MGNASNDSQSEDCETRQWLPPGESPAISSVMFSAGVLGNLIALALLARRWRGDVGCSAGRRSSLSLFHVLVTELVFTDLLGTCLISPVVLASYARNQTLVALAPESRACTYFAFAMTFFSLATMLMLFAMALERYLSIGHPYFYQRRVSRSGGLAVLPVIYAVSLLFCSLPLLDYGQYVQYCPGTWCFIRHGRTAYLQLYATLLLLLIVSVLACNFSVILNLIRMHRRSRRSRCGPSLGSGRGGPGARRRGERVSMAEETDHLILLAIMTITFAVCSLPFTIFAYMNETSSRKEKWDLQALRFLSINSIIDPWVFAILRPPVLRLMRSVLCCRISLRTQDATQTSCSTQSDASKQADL

IP (PGI2) (h) = biological target: T4, IP (PGI2) (h) (Homo sapiens, UniProt P43119); test: CEREP binding, agonist radioligand; settings: read-out: % Inhibition of Control Specific Binding
T4 construct: purchased CEREP 2230

5-HT4e (h) = 5-HT4e (h) (Homo sapiens, UniProt Q13639); test: biochemical; settings: read-out: % Inhibition of Control Specific Binding
Sequence of 5-HT4e (h) (Q13639 other isoform, or with tags, fused parts or gaps): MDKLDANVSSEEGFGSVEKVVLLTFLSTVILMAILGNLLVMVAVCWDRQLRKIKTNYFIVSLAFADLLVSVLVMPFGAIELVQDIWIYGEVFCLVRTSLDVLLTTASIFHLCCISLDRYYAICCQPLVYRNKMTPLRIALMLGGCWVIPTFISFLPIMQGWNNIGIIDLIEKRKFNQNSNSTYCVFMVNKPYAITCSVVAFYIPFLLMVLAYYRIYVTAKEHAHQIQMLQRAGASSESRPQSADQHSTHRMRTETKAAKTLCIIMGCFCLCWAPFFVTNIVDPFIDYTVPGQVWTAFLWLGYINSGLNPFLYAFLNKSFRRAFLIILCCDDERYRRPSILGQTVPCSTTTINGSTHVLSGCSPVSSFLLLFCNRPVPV

Ca2+ channel (N) = Ca2+ channel (N) (Rattus norvegicus, UniProt Q02294); test: biochemical; assay type: binding; settings: read-out: % Inhibition of Control Specific Binding
Sequence of Ca2+ channel (N) (Q02294 whole entry, looked up): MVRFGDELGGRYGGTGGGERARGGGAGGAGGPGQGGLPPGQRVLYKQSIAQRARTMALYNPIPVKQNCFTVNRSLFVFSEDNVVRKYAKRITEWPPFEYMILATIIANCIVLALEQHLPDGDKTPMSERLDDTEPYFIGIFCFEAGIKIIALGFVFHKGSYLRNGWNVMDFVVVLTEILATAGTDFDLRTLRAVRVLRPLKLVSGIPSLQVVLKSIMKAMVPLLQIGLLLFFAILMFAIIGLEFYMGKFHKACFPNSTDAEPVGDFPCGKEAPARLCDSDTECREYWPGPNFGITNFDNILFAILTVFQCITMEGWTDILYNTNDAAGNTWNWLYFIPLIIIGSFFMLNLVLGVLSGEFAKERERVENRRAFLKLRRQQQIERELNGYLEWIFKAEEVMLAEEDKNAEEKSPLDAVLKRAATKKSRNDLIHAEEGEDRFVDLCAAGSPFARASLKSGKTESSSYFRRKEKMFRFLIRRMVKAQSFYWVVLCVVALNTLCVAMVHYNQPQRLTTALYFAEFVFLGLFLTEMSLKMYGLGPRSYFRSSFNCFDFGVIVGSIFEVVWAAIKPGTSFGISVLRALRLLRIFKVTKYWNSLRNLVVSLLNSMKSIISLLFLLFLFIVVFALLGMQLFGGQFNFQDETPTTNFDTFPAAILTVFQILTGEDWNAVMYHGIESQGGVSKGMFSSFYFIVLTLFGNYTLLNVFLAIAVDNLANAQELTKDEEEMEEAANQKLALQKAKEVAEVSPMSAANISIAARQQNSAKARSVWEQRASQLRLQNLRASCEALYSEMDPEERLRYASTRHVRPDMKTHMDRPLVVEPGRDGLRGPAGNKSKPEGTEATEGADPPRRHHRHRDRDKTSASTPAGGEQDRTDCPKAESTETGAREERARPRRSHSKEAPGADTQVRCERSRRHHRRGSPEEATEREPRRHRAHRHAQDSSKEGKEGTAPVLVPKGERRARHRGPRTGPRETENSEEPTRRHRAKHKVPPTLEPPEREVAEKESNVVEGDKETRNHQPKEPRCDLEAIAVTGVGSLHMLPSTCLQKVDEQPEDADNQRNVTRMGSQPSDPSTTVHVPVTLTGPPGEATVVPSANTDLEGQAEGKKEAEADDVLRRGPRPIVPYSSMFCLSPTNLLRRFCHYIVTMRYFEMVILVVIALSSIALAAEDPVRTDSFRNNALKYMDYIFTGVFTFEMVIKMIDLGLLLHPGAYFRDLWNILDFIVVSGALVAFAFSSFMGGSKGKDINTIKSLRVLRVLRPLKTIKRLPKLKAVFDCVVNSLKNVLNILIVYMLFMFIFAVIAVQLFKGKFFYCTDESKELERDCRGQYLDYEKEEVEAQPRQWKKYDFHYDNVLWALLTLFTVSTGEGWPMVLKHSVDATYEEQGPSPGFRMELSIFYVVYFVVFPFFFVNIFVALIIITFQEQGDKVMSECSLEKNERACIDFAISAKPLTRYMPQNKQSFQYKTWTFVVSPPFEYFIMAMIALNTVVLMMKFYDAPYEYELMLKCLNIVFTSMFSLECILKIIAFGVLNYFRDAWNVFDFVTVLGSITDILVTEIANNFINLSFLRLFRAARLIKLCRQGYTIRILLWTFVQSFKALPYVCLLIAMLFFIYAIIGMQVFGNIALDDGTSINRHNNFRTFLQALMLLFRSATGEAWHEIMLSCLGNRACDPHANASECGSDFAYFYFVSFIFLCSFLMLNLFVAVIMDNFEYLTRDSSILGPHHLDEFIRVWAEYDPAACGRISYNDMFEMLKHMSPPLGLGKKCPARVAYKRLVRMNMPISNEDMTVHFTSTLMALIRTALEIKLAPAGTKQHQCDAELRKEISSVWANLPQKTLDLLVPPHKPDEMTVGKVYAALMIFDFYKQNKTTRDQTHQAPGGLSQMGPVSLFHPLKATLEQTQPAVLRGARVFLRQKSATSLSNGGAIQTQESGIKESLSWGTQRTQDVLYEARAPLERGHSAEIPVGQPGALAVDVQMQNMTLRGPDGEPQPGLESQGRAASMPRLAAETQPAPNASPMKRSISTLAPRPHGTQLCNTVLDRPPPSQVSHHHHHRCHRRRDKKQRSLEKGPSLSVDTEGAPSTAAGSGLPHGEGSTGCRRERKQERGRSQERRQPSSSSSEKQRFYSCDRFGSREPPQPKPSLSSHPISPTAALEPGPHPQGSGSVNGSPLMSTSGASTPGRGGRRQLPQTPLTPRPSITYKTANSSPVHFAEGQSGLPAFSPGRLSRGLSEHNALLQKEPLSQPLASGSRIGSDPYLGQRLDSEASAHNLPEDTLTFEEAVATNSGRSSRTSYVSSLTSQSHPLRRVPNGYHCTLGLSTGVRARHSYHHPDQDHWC

SKCa channel = assay type: binding
GABA transporter = assay type: binding
BRD2(1) = BRD2(1) (Homo sapiens, UniProt P25440)
Sequence of BRD2(1) (P25440 74-180 limits assumed): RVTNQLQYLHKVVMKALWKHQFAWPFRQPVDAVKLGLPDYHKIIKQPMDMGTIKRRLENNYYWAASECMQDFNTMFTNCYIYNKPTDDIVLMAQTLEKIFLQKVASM

B2 (h) = B2 (h) (Homo sapiens, UniProt P30411); test: biochemical; settings: read-out: % Inhibition of Control Specific Binding
CCK1 (CCKA) (h) = CCK1 (CCKA) (h) (Homo sapiens, UniProt P32238); test: biochemical; settings: read-out: % Inhibition of Control Specific Binding
UT (h) = UT (h) (Homo sapiens, UniProt Q9UKP6); test: biochemical; settings: read-out: % Inhibition of Control Specific Binding
VPAC1 (VIP1) (h) = VPAC1 (VIP1) (h) (Homo sapiens, UniProt P32241); test: biochemical; settings: read-out: % Inhibition of Control Specific Binding

Q: How did the N (BAZ2A) turn out when CCOC(=O)Nc1cc(-c2ccc(C)c(NS(C)(=O)=O)c2)nn2c(C)nnc12 [BSP, ethyl (3-methyl-6-(4-methyl-3-(methylsulfonamido)phenyl)-[1,2,4]triazolo[4,3-b]pyridazin-8-yl)carbamate] was run?
A: 1.05 ± 0.025

Q: And the TΔS (BAZ2A)?
A: 17.2 kJ/mol

Q: What about the ΔG (BAZ2A) of the same compound?
A: -30 kJ/mol

Q: And the “ΔH^obs” value (BAZ2A)?
A: -12.7 ± 0.397 kJ/mol

Q: And the N (BRD4(1))?
A: 0.94 ± 0.002

Q: And the TΔS (BRD4(1))?
A: -5.69 kJ/mol

Q: What about the “ΔH^obs” value (BRD4(1)) of the same compound?
A: -46.4 ± 0.159 kJ/mol

Q: What about the N (BRD9) of the same compound?
A: 1.00 ± 0.002

Q: And the TΔS (BRD9)?
A: 4.1 kJ/mol

Q: And the ΔG (BRD9)?
A: -40.7 kJ/mol

Q: What about the “ΔH^obs” value (BRD9) of the same compound?
A: -36.6 ± 0.163 kJ/mol

Q: And the N (BRPF3)?
A: 1.08 ± 0.025

Q: What about the TΔS (BRPF3) of the same compound?
A: 10.4 kJ/mol

Q: What about the ΔG (BRPF3) of the same compound?
A: -27.9 kJ/mol

Q: What about the “ΔH^obs” value (BRPF3) of the same compound?
A: -17.6 ± 0.515 kJ/mol

Q: What about the IC50 (OCI-AML3) of the same compound?
A: 0.399 µM

Q: And the “effect on cell proliferation” value (K562)?
A: No significant effect

Q: And the inhibition at 10 µM (A1 (h))?
A: 30%

Q: What about the inhibition at 10 µM (alpha 2C (h)) of the same compound?
A: 3%

Q: What about the inhibition at 10 µM (beta 2 (h)) of the same compound?
A: 2%

Q: And the inhibition at 10 µM (AT2 (h))?
A: 2%

Q: And the “% Inhibition of Control Specific Binding” value (BZD (central))?
A: -8

Q: What about the inhibition at 10 µM (D3 (h)) of the same compound?
A: -2%

Q: What about the inhibition at 10 µM (ETB (h)) of the same compound?
A: -15%

Q: What about the inhibition at 10 µM [1] of the same compound?
A: 11%

Q: And the inhibition at 10 µM (GABAB(1b) (h))?
A: 13%

Q: What about the “% Inhibition of Control Specific Binding” value (kainate) of the same compound?
A: -4

Q: And the “% Inhibition of Control Specific Binding” value (NMDA)?
A: -2

Q: What about the inhibition at 10 µM [2] of the same compound?
A: 6%

Q: And the “% Inhibition of Control Specific Binding” value (TNF-alpha (h))?
A: -7

Q: What about the inhibition at 10 µM (CCR2 (h)) of the same compound?
A: -8%

Q: And the inhibition at 10 µM (motilin (h))?
A: 7%

Q: What about the inhibition at 10 µM (NK2 (h)) of the same compound?
A: 6%

Q: What about the inhibition at 10 µM (N muscle-type (h)) of the same compound?
A: -7%

Q: What about the inhibition at 10 µM (PAF (h)) of the same compound?
A: -6%

Q: And the inhibition at 10 µM (EP2 (h))?
A: 16%

Q: And the inhibition at 10 µM (IP (PGI2) (h))?
A: -8%

Q: And the inhibition at 10 µM (5-HT4e (h))?
A: 5%

Q: What about the inhibition at 10 µM (Ca2+ channel (N)) of the same compound?
A: 16%

Q: And the “% Inhibition of Control Specific Binding” value (SKCa channel)?
A: -15

Q: And the “% Inhibition of Control Specific Binding” value (GABA transporter)?
A: 0

Q: And the N (BRD2(1))?
A: 1.00 ± 0.003

Q: What about the TΔS (BRD2(1)) of the same compound?
A: 5.61 kJ/mol

Q: And the ΔG (BRD2(1))?
A: -38.7 kJ/mol

Q: What about the “ΔH^obs” value (BRD2(1)) of the same compound?
A: -33.1 ± 0.142 kJ/mol

Q: And the “% Inhibition of Control Specific Binding” value (AMPA)?
A: 11

Q: What about the inhibition at 10 µM (B2 (h)) of the same compound?
A: -1%

Q: What about the inhibition at 10 µM (CCK1 (CCKA) (h)) of the same compound?
A: -8%

Q: What about the inhibition at 10 µM (UT (h)) of the same compound?
A: -9%

Q: What about the inhibition at 10 µM (VPAC1 (VIP1) (h)) of the same compound?
A: 0%
